Assay results published in PubChem BioAssay AID1745844 (Carcinogenic Potency Database (CPDB), 2022).
Calls of active or inactive are those of the source. How the calls were made is not given here.

Tested on: rodent lifetime carcinogenesis bioassay, tumor incidence TD50
Assay: chronic cancer bioassays in animals – CPDB, compiled studies (AID 1745844)
[1] = mouse, strain B6AKF1, females, oral dosing, site: any site (literature study), lesion: several types, types named in the paper, dosed 76 weeks, study length 76 weeks
[2] = mouse, strain B6AKF1, females, oral dosing, site: lung, lesion: adenoma, dosed 76 weeks, study length 76 weeks
[3] = mouse, strain B6AKF1, males, oral dosing, site: any site (literature study), lesion: several types, types named in the paper, dosed 76 weeks, study length 76 weeks
[4] = mouse, strain B6AKF1, males, oral dosing, site: lung, lesion: adenoma, dosed 76 weeks, study length 76 weeks
[5] = mouse, strain B6C3F1, males, oral dosing, site: any site (literature study), lesion: several types, types named in the paper, dosed 76 weeks, study length 76 weeks
[6] = mouse, strain B6C3F1, males, oral dosing, site: liver, lesion: hepatoma, dosed 76 weeks, study length 76 weeks

SMILES: CN(C)C(=O)NC1CC2CC1C1CCCC21 (stereo unspecified)
- carcinogen call [1]: negative (inactive)
- carcinogen call (mouse, strain B6AKF1, females, oral dosing, site: liver, lesion: hepatoma, dosed 76 weeks, study length 76 weeks): negative (inactive)
- carcinogen call [2]: negative (inactive)
- carcinogen call [3]: negative (inactive)
- carcinogen call (mouse, strain B6AKF1, males, oral dosing, site: liver, lesion: hepatoma, dosed 76 weeks, study length 76 weeks): negative (inactive)
- carcinogen call [4]: negative (inactive)
- TD50 (mouse, strain B6C3F1, females, oral dosing, site: any site (literature study), lesion: several types, types named in the paper, dosed 76 weeks, study length 76 weeks): 1230 mg/kg/day (inactive)
- carcinogen call (mouse, strain B6C3F1, females, oral dosing, site: liver, lesion: hepatoma, dosed 76 weeks, study length 76 weeks): negative (inactive)
- TD50 (mouse, strain B6C3F1, females, oral dosing, site: lung, lesion: adenoma, dosed 76 weeks, study length 76 weeks): 1230 mg/kg/day (inactive)
- TD50 [5]: 259 mg/kg/day (inactive)
- TD50 [6]: 359 mg/kg/day (inactive)
- carcinogen call (mouse, strain B6C3F1, males, oral dosing, site: lung, lesion: several types, types named in the paper, dosed 76 weeks, study length 76 weeks): negative (inactive)

SMILES: Clc1cccc(-c2cccc(Cl)c2)c1
- TD50 (rat, strain Wistar, males, in feed, site: liver, lesion: hepatocellular carcinoma, dosed 116 weeks, study length 116 weeks): 157 mg/kg/day

SMILES: Clc1ccc(C(c2ccccc2Cl)C(Cl)Cl)cc1 (stereo unspecified)
- TD50 [1]: 102 mg/kg/day
- TD50 [2]: 236 mg/kg/day
- TD50 [3]: 187 mg/kg/day
- TD50 [4]: 414 mg/kg/day
- TD50 (mouse, strain B6AKF1, males, oral dosing, site: lung, lesion: carcinoma, dosed 76 weeks, study length 76 weeks): 467 mg/kg/day
- TD50 (mouse, strain B6C3F1, males, oral dosing, site: all sites, lesion: reticulum-cell sarcoma, dosed 76 weeks, study length 76 weeks): 82.1 mg/kg/day
- TD50 [5]: 38.5 mg/kg/day
- TD50 [6]: 147 mg/kg/day
- TD50 (mouse, strain B6C3F1, males, oral dosing, site: lung, lesion: adenoma, dosed 76 weeks, study length 76 weeks): 467 mg/kg/day

SMILES: N#[N+]c1ccccc1
- TD50 (hamster, strain Syrian Golden, females, by gavage, site: liver, lesion: Kupffer-cell sarcoma, dosed 90 weeks, study length 90 weeks): 66.1 mg/kg/day (inactive)
- TD50 (hamster, strain Syrian Golden, females, by gavage, site: liver, lesion: cholangioma, dosed 90 weeks, study length 90 weeks): 293 mg/kg/day (inactive)
- TD50 (hamster, strain Syrian Golden, females, by gavage, site: liver, lesion: hemangioma, dosed 90 weeks, study length 90 weeks): 66.1 mg/kg/day (inactive)
- TD50 (hamster, strain Syrian Golden, males, by gavage, site: liver, lesion: hemangioma, dosed 90 weeks, study length 90 weeks): 293 mg/kg/day (inactive)
- TD50 (mouse, strain Swiss albino, females, by gavage, site: lung, lesion: adenocarcinoma, dosed 52 weeks, study length 141 weeks): 39.4 mg/kg/day
- TD50 (mouse, strain Swiss albino, females, by gavage, site: lung, lesion: adenoma, dosed 52 weeks, study length 141 weeks): 27.1 mg/kg/day
- TD50 (mouse, strain Swiss albino, females, by gavage, site: lung, lesion: several types, types named in the paper, dosed 52 weeks, study length 141 weeks): 16.5 mg/kg/day
- TD50 (mouse, strain Swiss albino, males, by gavage, site: lung, lesion: adenoma, dosed 52 weeks, study length 129 weeks): 14.8 mg/kg/day
- TD50 (mouse, strain Swiss albino, males, by gavage, site: lung, lesion: several types, types named in the paper, dosed 52 weeks, study length 129 weeks): 12.7 mg/kg/day

SMILES: FC(F)(F)CCl
- TD50 (rat, strain Alpk:APfSD, females, by gavage, site: uterus, lesion: adenocarcinoma, dosed 52 weeks, study length 125 weeks): 160 mg/kg/day
- TD50 (rat, strain Alpk:APfSD, males, by gavage, site: testis, lesion: interstitial-cell tumor, dosed 52 weeks, study length 125 weeks): 60 mg/kg/day

SMILES: Nc1ccc(Cl)cc1N
- TD50 (mouse, strain B6C3F1, females, in feed, site: any site (literature study), lesion: several types, types named in the paper, dosed 78 weeks, study length 95 weeks): 4090 mg/kg/day
- TD50 (mouse, strain B6C3F1, females, in feed, site: liver, lesion: hepatocellular adenoma + hepatocellular carcinoma + neoplastic nodule, dosed 78 weeks, study length 95 weeks): 2240 mg/kg/day
- TD50 (mouse, strain B6C3F1, females, in feed, site: liver, lesion: hepatocellular adenoma + hepatocellular carcinoma, dosed 78 weeks, study length 95 weeks): 2240 mg/kg/day
- TD50 (mouse, strain B6C3F1, females, in feed, site: liver, lesion: hepatocellular carcinoma, dosed 78 weeks, study length 95 weeks): 5060 mg/kg/day
- TD50 (mouse, strain B6C3F1, males, in feed, site: any site (literature study), lesion: several types, types named in the paper, dosed 78 weeks, study length 95 weeks): 905 mg/kg/day
- TD50 (mouse, strain B6C3F1, males, in feed, site: liver, lesion: hepatocellular adenoma + hepatocellular carcinoma + neoplastic nodule, dosed 78 weeks, study length 95 weeks): 957 mg/kg/day
- TD50 (mouse, strain B6C3F1, males, in feed, site: liver, lesion: hepatocellular adenoma + hepatocellular carcinoma, dosed 78 weeks, study length 95 weeks): 957 mg/kg/day
- TD50 (mouse, strain B6C3F1, males, in feed, site: liver, lesion: hepatocellular carcinoma, dosed 78 weeks, study length 95 weeks): 1370 mg/kg/day
- TD50 (mouse, strain B6C3F1, males, in feed, site: lung, lesion: alveolar/bronchiolar adenoma + alveolar/bronchiolar carcinoma, dosed 78 weeks, study length 95 weeks): 21300 mg/kg/day
- TD50 (rat, strain Fischer 344, females, in feed, site: any site (literature study), lesion: several types, types named in the paper, dosed 78 weeks, study length 105 weeks): 351 mg/kg/day
- TD50 (rat, strain Fischer 344, females, in feed, site: liver, lesion: hepatocellular adenoma + hepatocellular carcinoma + neoplastic nodule, dosed 78 weeks, study length 105 weeks): 6500 mg/kg/day
- TD50 (rat, strain Fischer 344, females, in feed, site: stomach + urinary bladder, lesion: squamous-cell papilloma + papillomatosis + papillary carcinoma + papilloma, NOS + transitional-cell carcinoma + transitional-cell, dosed 78 weeks, study length 105 weeks): 212 mg/kg/day
- TD50 (rat, strain Fischer 344, females, in feed, site: stomach, lesion: squamous-cell papilloma, dosed 78 weeks, study length 105 weeks): 5270 mg/kg/day
- TD50 (rat, strain Fischer 344, females, in feed, site: thyroid gland, lesion: follicular-cell adenoma + follicular-cell carcinoma, dosed 78 weeks, study length 105 weeks): 2160 mg/kg/day
- TD50 (rat, strain Fischer 344, females, in feed, site: urinary bladder, lesion: papillary carcinoma + transitional-cell carcinoma, dosed 78 weeks, study length 105 weeks): 429 mg/kg/day
- TD50 (rat, strain Fischer 344, females, in feed, site: urinary bladder, lesion: papillomatosis + papillary carcinoma + papilloma, NOS + transitional-cell carcinoma + transitional-cell papilloma, dosed 78 weeks, study length 105 weeks): 212 mg/kg/day
- TD50 (rat, strain Fischer 344, males, in feed, site: any site (literature study), lesion: several types, types named in the paper, dosed 78 weeks, study length 105 weeks): 362 mg/kg/day
- TD50 (rat, strain Fischer 344, males, in feed, site: liver, lesion: hepatocellular adenoma + hepatocellular carcinoma + neoplastic nodule, dosed 78 weeks, study length 105 weeks): 1240 mg/kg/day
- TD50 (rat, strain Fischer 344, males, in feed, site: stomach + urinary bladder, lesion: squamous-cell carcinoma + squamous-cell papilloma + papilloma, NOS + transitional-cell carcinoma + transitional-cell papilloma, dosed 78 weeks, study length 105 weeks): 197 mg/kg/day
- TD50 (rat, strain Fischer 344, males, in feed, site: stomach, lesion: squamous-cell carcinoma + squamous-cell papilloma, dosed 78 weeks, study length 105 weeks): 2500 mg/kg/day
- TD50 (rat, strain Fischer 344, males, in feed, site: thyroid gland, lesion: follicular-cell adenoma + follicular-cell carcinoma, dosed 78 weeks, study length 105 weeks): 3380 mg/kg/day
- TD50 (rat, strain Fischer 344, males, in feed, site: urinary bladder, lesion: papilloma, NOS + transitional-cell carcinoma + transitional-cell papilloma, dosed 78 weeks, study length 105 weeks): 216 mg/kg/day
- TD50 (rat, strain Fischer 344, males, in feed, site: urinary bladder, lesion: squamous-cell carcinoma, dosed 78 weeks, study length 105 weeks): 3780 mg/kg/day
- TD50 (rat, strain Fischer 344, males, in feed, site: urinary bladder, lesion: transitional-cell carcinoma, dosed 78 weeks, study length 105 weeks): 363 mg/kg/day

SMILES: CCCCCN(CCCCC)N=O
- TD50 (rat, strain Fischer 344, females, in feed, site: liver, lesion: hepatocellular carcinoma, dosed 99 weeks, study length 104 weeks): 7.57 mg/kg/day
- TD50 (rat, strain Fischer 344, males, in feed, site: liver, lesion: hepatocellular carcinoma, dosed 89 weeks, study length 104 weeks): 2.75 mg/kg/day

SMILES: O=[N+]([O-])c1ccc(-c2nc(N(CCO)CCO)c3ccccc3n2)s1
- TD50 (rat, strain Sprague-Dawley, males, in feed, site: any site (literature study), lesion: several types, types named in the paper, dosed 50 weeks, study length 52 weeks): 1.1 mg/kg/day
- TD50 (rat, strain Sprague-Dawley, males, in feed, site: mammary gland, lesion: adenocarcinoma, dosed 50 weeks, study length 52 weeks): 11.5 mg/kg/day
- TD50 (rat, strain Sprague-Dawley, males, in feed, site: mammary gland, lesion: several types, types named in the paper, dosed 50 weeks, study length 52 weeks): 6.45 mg/kg/day
- TD50 (rat, strain Sprague-Dawley, males, in feed, site: small intestine, lesion: leiomyosarcoma, dosed 50 weeks, study length 52 weeks): 3.6 mg/kg/day
- TD50 (rat, strain Sprague-Dawley, males, in feed, site: small intestine, lesion: sarcoma, dosed 50 weeks, study length 52 weeks): 3.14 mg/kg/day

SMILES: CN=C(NC#N)NCCSCc1nc[nH]c1C
- TD50 (mouse, strain C57BL/6, females, in drinking water, site: liver, lesion: several types, types named in the paper, dosed 126 weeks, study length 126 weeks): 52200 mg/kg/day (inactive)
- carcinogen call (mouse, strain C57BL/6, females, in drinking water, site: lung, lesion: one or several types, types not named, dosed 126 weeks, study length 126 weeks): negative (inactive)
- carcinogen call (rat, strain Charles River CD (Sprague-Dawley), females, by gavage, site: gastric mucosa, lesion: carcinoid tumor, malignant, dosed 105 weeks, study length 105 weeks): negative (inactive)
- carcinogen call (rat, strain Charles River CD (Sprague-Dawley), males, by gavage, site: gastric mucosa, lesion: carcinoid tumor, malignant, dosed 105 weeks, study length 105 weeks): negative (inactive)

SMILES: CC(C)(C)NC[C@H](O)COc1cccc2c1CCCC2=O
- TD50 (mouse, strain CF-1, females, in feed, site: liver, lesion: hepatoma, dosed 78 weeks, study length 78 weeks): 5010 mg/kg/day
- TD50 (mouse, strain CF-1, females, in feed, site: lung, lesion: alveogenic adenocarcinoma, dosed 78 weeks, study length 78 weeks): 2500 mg/kg/day
- TD50 (mouse, strain CF-1, females, in feed, site: uterus, lesion: leiomyoma, dosed 78 weeks, study length 78 weeks): 1220 mg/kg/day
- TD50 (rat, strain Wistar albino, females, in feed, site: liver, lesion: hepatoma, benign, dosed 104 weeks, study length 104 weeks): 2360 mg/kg/day
- TD50 (rat, strain Wistar albino, females, in feed, site: mammary gland, lesion: fibroadenoma, dosed 104 weeks, study length 104 weeks): 71 mg/kg/day
- TD50 (rat, strain Wistar albino, males, in feed, site: liver, lesion: hepatoma, benign, dosed 104 weeks, study length 104 weeks): 982 mg/kg/day
- TD50 (rat, strain Wistar albino, males, in feed, site: pituitary gland, lesion: adenoma, dosed 104 weeks, study length 104 weeks): 71.9 mg/kg/day

SMILES: C=CCNN
- TD50 (mouse, strain Swiss albino, females, in drinking water, site: blood vessels, lesion: angioma, dosed 105 weeks, study length 105 weeks): 163 mg/kg/day
- TD50 (mouse, strain Swiss albino, females, in drinking water, site: blood vessels, lesion: several types, types named in the paper, dosed 105 weeks, study length 105 weeks): 119 mg/kg/day
- TD50 (mouse, strain Swiss albino, females, in drinking water, site: liver, lesion: several types, types named in the paper, dosed 105 weeks, study length 105 weeks): 234 mg/kg/day
- TD50 (mouse, strain Swiss albino, females, in drinking water, site: lung, lesion: adenocarcinoma, dosed 105 weeks, study length 105 weeks): 96 mg/kg/day
- TD50 (mouse, strain Swiss albino, females, in drinking water, site: lung, lesion: adenoma, dosed 105 weeks, study length 105 weeks): 46.1 mg/kg/day
- TD50 (mouse, strain Swiss albino, females, in drinking water, site: lung, lesion: several types, types named in the paper, dosed 105 weeks, study length 105 weeks): 38.4 mg/kg/day
- TD50 (mouse, strain Swiss albino, males, in drinking water, site: liver, lesion: hepatoma, dosed 93 weeks, study length 93 weeks): 274 mg/kg/day (inactive)
- TD50 (mouse, strain Swiss albino, males, in drinking water, site: lung, lesion: adenoma, dosed 93 weeks, study length 93 weeks): 28.9 mg/kg/day
- TD50 (mouse, strain Swiss albino, males, in drinking water, site: lung, lesion: several types, types named in the paper, dosed 93 weeks, study length 93 weeks): 30.9 mg/kg/day

SMILES: O=CC(O)C(O)C(O)C(O)COC1OC(COC2OC(CO)C(O)C(O)C2O)C(O)C(O)C1O (stereo unspecified)
- TD50 (rat, strain ACI, females, in feed, site: urinary bladder, lesion: one or several types, types not named, dosed 68 weeks, study length 68 weeks): 1640 mg/kg/day (inactive)
- TD50 (rat, strain ACI, males, in feed, site: urinary bladder, lesion: one or several types, types not named, dosed 68 weeks, study length 68 weeks): 3190 mg/kg/day (inactive)
